# Experimental data from patent publication US20230355586A1, “Application of Valdecoxib in preparation of medications for preventing and treating glaucoma” (Central South University, priority 2022, published 2023).
# Entries after “also recorded” stand apart in the source; their conditions may differ.
# Legend:
# R28 cells [1] = assay: Cell death of R28 cells pretreated with CCT020312; format: cell-based, rat; details: R28 cells pretreated with different concentrations of CCT020312
# PERK-ATF4-CHOP pathway [2] = assay: Western blot of ER stress, PERK-ATF4-CHOP pathway and apoptosis proteins in R28 OGD/R model; format: cell-based, rat; details: R28 cells
# [3] = test system: RGCs (retinal ganglion cells); assay: TUNEL/RBPMS apoptosis assay of retina in aHIOP retinal I/R model; format: in vivo, SD (Sprague-Dawley) rats; details: rat I/R model, compared to the I/R group
# Experimental: (§1) Through animal ethics, cell culture, animal selection, reagent and antibody information, anterior chamber compression rat model is established, R28 cell OGD/R (oxygen-glucose deprivation/reoxygenation) model is established; HE (hematoxylin-eosin) staining, apoptosis by TUNEL (TdT-mediated dUTP Nick-End Labeling) detection, cell viability by CCK8 (Cell Counting Kit-8), Western blot assay, Annexin V-FITC/PI flow cytometry, PI/Hoechest staining and immunofluorescence assay are performed.
# (§2) In order to evaluate the potential therapeutic prospect of VAL for saving RGCs (retinal ganglion cells) in glaucoma retinal injury, the glaucoma retinal IR is simulated by performing an aHIOP (acute high intraocular pressure) model on SD (Sprague-Dawley) rats. The rats are sacrificed and their eyeballs are removed at 1, 3 or 7 days post-IRI. HE staining is performed to detect the morphological changes in the retina. It is discovered that, compared to the control group, the retinas from 3 and 7 days post-IRI are markedly thinner. Additionally, lost RCGs or their disordered arrangement is observed at 3 and 7 days after IRI when compared with the control retina, as shown in FIGS. 2A and 2B. Next, the valdecoxib's effect on the RGCs in the FR model by HE staining and immunofluorescence. […] A TUNEL assay is performed to clarify whether valdecoxib's protective effect involves the anti-apoptosis mechanism. […]
# PERK-ATF4-CHOP pathway [4] = assay: Western blot of retina lysates in retinal I/R model; format: in vivo, rats; details: rat retina
# Experimental: as §1, with “R28” left out, “performed. […] The expression levels of the apoptosis-related proteins are examined in the control, I/R, I/R+DMSO and I/R+valdecoxib groups. […] The expression levels of p-PERK, cleaved caspase 3 and GRP78 in RGCs are evaluated by immunofluorescence.” for “performed.”
# R28 cells [5] = assay: Annexin V-FITC/PI flow cytometry apoptosis in R28 OGD/R model; format: cell-based, rat; details: vs. OGD/R group
# Experimental: (§3) Through animal ethics, cell culture, animal selection, reagent and antibody information, anterior chamber compression rat model is established, […] cell OGD/R (oxygen-glucose deprivation/reoxygenation) model is established; HE (hematoxylin-eosin) staining, apoptosis by TUNEL (TdT-mediated dUTP Nick-End Labeling) detection, cell viability by CCK8 (Cell Counting Kit-8), Western blot assay, Annexin V-FITC/PI flow cytometry, PI/Hoechest staining and immunofluorescence assay are performed. The cell death rate at multiple time points with the OGD/R model is detected using PI staining. PI-positive cells are identified as dead cells. The proportion of PI-positive cells at multiple time points are calculated. […] To identify whether the valdecoxib's effect involved an anti-apoptosis mechanism, FCM (flow cytometry) is performed, and a further analysis indicates both that OGD/R induced cell apoptosis and the valdecoxib decreases the cell apoptosis rate, as shown in FIGS. 1E-1H.
# [6] = test system: retina / RGCs (retinal ganglion cells); assay: HE staining of retina in acute high intraocular pressure (aHIOP) retinal I/R model; format: in vivo, SD (Sprague-Dawley) rats; details: rat I/R model, 3 days post-injury, intravitreal injection
# Experimental: as §1, §2
# R28 cells [7] = assay: CCK-8 cell viability in R28 OGD/R model; format: cell-based, rat; details: 2 h post-OGD/R, vs. OGD/R group
# Experimental: as §3
# [8] = I/R, pretreated with valdecoxib
structure (smiles),measurement,setting,value
CCN(CC)CCC(=O)N1N=C(c2c(-c3ccccc3)c3cc(Br)ccc3[nH]c2=O)CC1c1ccc(Br)cc1 (centres unmarked) [CCT020312],cell death,R28 cells [1],no significant cell death
same,bax expression level (Western blot),PERK-ATF4-CHOP pathway [2]; CCT020312 pre-treated group,consistent with those of the PERK-ATF4-CHOP pathway proteins
same,cleaved caspase 3 expression level (Western blot),PERK-ATF4-CHOP pathway [2]; CCT020312 pre-treated group,consistent with those of the PERK-ATF4-CHOP pathway proteins
same,expression of markers of ER stress and the PERK-ATF4-CHOP pathway (Western blot),"PERK-ATF4-CHOP pathway [2]; valdecoxib pretreatment prior to CCT020312, vs. OGD/R+VAL","reverses the valdecoxib's effects, increasing the expression"
Cc1onc(-c2ccccc2)c1-c1ccc(S(N)(=O)=O)cc1 [valdecoxib],TUNEL-positive RGCs,[3],reduced
same,ATF4 protein level (Western blot),PERK-ATF4-CHOP pathway [2]; valdecoxib pretreatment,decrease the expression; also recorded: significantly reduces
same,CHOP protein level (Western blot),PERK-ATF4-CHOP pathway [2]; valdecoxib pretreatment,decrease the expression; also recorded: significantly reduces
same,GRP78 protein level (Western blot),PERK-ATF4-CHOP pathway [2]; valdecoxib pretreatment,decrease the expression; also recorded: significantly reduces
same,bax protein level (Western blot),PERK-ATF4-CHOP pathway [2]; valdecoxib pretreatment,decreased; also recorded: significantly reduces
same,bcl-2 protein expression (Western blot),PERK-ATF4-CHOP pathway [2]; valdecoxib pretreatment,opposite to that of the bax and cleaved caspase 3
same,cleaved caspase 3 protein level (Western blot),PERK-ATF4-CHOP pathway [2]; valdecoxib pretreatment,decreased; also recorded: significantly reduces
same,p-PERK protein level (Western blot),PERK-ATF4-CHOP pathway [2]; valdecoxib pretreatment,decrease the expression; also recorded: significantly reduces
same,bax expression (Western blot),PERK-ATF4-CHOP pathway [4]; I/R injury,decreases the expression
same,bcl-2 expression (Western blot),PERK-ATF4-CHOP pathway [4]; I/R injury,opposite of that of the bax and cleaved caspase 3
same,cleaved caspase 3 expression (Western blot),PERK-ATF4-CHOP pathway [4]; I/R injury,decreases the expression
same,ATF4 expression level (Western blot),PERK-ATF4-CHOP pathway [4]; [8],reduced
same,CHOP expression level (Western blot),PERK-ATF4-CHOP pathway [4]; [8],reduced
same,GRP78 expression (Western blot),PERK-ATF4-CHOP pathway [4]; [8],consistent with the PERK-ATF4-CHOP pathway proteins
same,p-PERK expression level (Western blot),PERK-ATF4-CHOP pathway [4]; [8],reduced
same,cell apoptosis rate (flow cytometry),R28 cells [5],decreases
same,RGCs' survival rate,[6],significantly increases
same,retinal thickness (HE staining),[6],significantly increases
same,cell survival rate (CCK-8),R28 cells [7]; 1 μmol/L,significantly elevates
same,cell survival rate (CCK-8),"R28 cells [7]; 1 μmol/L, listed as VAL",significant increase
same,cell survival rate (CCK-8),R28 cells [7]; 5 μmol/L,significantly elevates
same,cell survival rate (CCK-8),"R28 cells [7]; 5 μmol/L, listed as VAL",significant increase
